Laboratory results as given in US20240262793A1, “QUINAZOLINE COMPOUND, AND PREPARATION METHOD THEREFOR AND APPLICATION THEREOF” (SHANGHAI PHARMACEUTICALS HOLDING CO., LTD., priority 2021, published 2024).

Columns and labels:
Assay type in all cases: cell-based
TNF-α = test: Inhibition of TNF-α in PMA-differentiated, LPS-stimulated THP-1 cells (ELISA of cell supernatant); details: Homo sapiens, THP-1, Table 7, PMA 50 ng/mL, LPS 100 ng/mL
Procedure: (§1) (1) Cell culture and inoculation: A stock solution of PMA at 1 mg/mL was diluted with serum-free RP1640 medium to prepare a 100 ng/mL PMA solution. Normal cultured THP-1 cells were centrifuged, resuspended in a complete medium (RP1640 medium containing 10% FBS), and counted. The cell density was adjusted to 2×10^6 cells/mL. An equal volume of 100 ng/mL PMA solution was then added, resulting in a cell density of 1×10^6 cells/mL and a final PMA concentration of 50 ng/mL. 100 μL of the cell suspension was seeded into each well of a 96-well cell culture plate with 1×10^5 cells per well. The 96-well cell culture plate was then incubated at 37° C. in a 5% CO2 atmosphere for 24 hours.
(§2) (2) Drug treatment of cells: On the second day, LPS was added to the complete medium to adjust the final concentration to 100 ng/mL, and the compound was prepared using this LPS-containing medium. The compound was added to the appropriate cell wells according to the prepared concentration gradient. The positive control group (LPS+) was a culture medium solution containing a final concentration of 100 ng/mL LPS and 0.1% DMSO without drugs, while the negative control group (LPS-) was a culture medium solution containing 0.1% DMSO without LPS. The volume in each well was 100 μL.
(§3) (3) Test sample collection: The mixture was centrifuged at 1000 rpm for 5 minutes and the cell supernatant and cell precipitate were collected separately. The cell supernatant was used to detect TNF-α and IL-6, and the cell precipitate was collected for IL-1β detection. After collecting the cell supernatant, the remaining liquid in the wells was discarded and 100 μL of cell lysis solution (20 mM Tris 8.0; 2 mM EDTA; 0.5% Triton X-100) was added to each well for complete lysis.
(§4) (4) Sample detection: The enzyme-linked immunosorbent assay (ELISA) was used to detect the content of each cytokine. The specific steps were performed according to the instructions provided in the corresponding kit manuals. The catalog numbers of kits are as follows: • Human TNF-alpha Quantikine ELISA Kit, Catalog # STA00D • Human IL-1 beta/IL-1F2 Quantikine ELISA Kit, Catalog # SLB50 • Human IL-6 Quantikine ELISA Kit, Catalog # S6050.
(§5) (5) Data analysis: The in vitro inhibitory activity of the compounds was calculated using the following formula: […]

IL-6 = test: Inhibition of IL-6 in PMA-differentiated, LPS-stimulated THP-1 cells (ELISA of cell supernatant); details: Homo sapiens, LPS 100 ng/mL
Procedure: as §1, §2, §3, §4, §5

IL-1β = test: Inhibition of IL-1β in PMA-differentiated, LPS-stimulated THP-1 cells (ELISA of cell lysate); details: Homo sapiens, LPS 100 ng/mL
Procedure: as §1, §2, §3, §4, §5

| Compound | IC50 (TNF-α) [µM] | IC50 (IL-6; THP-1, Table 7, PMA 50 ng/mL) [µM] | IC50 (IL-1β; THP-1, Table 7, PMA 50 ng/mL) [µM] | IC50 (IL-6; THP-1, Table 8, PMA 50 ng/mL) [µM] | IC50 (IL-1β; THP-1, Table 8, PMA 50 ng/mL) [µM] |
| --- | --- | --- | --- | --- | --- |
| CC(CCCN1CCS(=O)(=O)CC1)Nc1ccnc2cc(Cl)ccc12 (centres unmarked) [Example 1, 4-(4-((7-Chloroquinolin-4-yl)amino)pentyl)thiomorpholine-1,1-dioxide] | 31.7 | 0.86 | 23.1 |  |  |
| CC(CCCN1C(=O)CN(C)C1=O)Nc1ccnc2cc(Cl)ccc12 (centres unmarked) [Example 2, 3-(4-((7-Chloroquinolin-4-yl)amino)pentyl)-1-methylimidazolidine-2,4-dione] | 10.4 | 1.17 | 17.9 |  |  |
| CC(CCCNCCN1CCCC1)Nc1ccnc2cc(Cl)ccc12 (centres unmarked) [Example 3, N^4-(7-Chloroquinolin-4-yl)-N^1-(2-(pyrrolidin-1-yl)ethyl)pentane-1,4-diamine] | 56.5 | 5.53 |  |  |  |
| CC(CCCNCC1(C)COC1)Nc1ccnc2cc(Cl)ccc12 (centres unmarked) [Example 4, N^4-(7-Chloroquinolin-4-yl)-N^1-((3-methyloxetan-3-yl)methyl)pentane-1,4-diamine] | 5.54 | 1.28 | 14.4 |  |  |
| CCOc1ncccc1CNCCCC(C)Nc1ccnc2cc(Cl)ccc12 (centres unmarked) [Example 5, N^4-(7-Chloroquinolin-4-yl)-N^1-((2-ethoxypyridin-3-yl)methyl)pentane-1,4-diamine] | 25.6 | 3.95 | 19.5 |  |  |
| CC(CCCN1CC2(COC2)C1)Nc1ccnc2cc(Cl)ccc12 (centres unmarked) [Example 6, N-(5-(2-Oxa-6-azaspiro[3.3]heptan-6-yl)pentan-2-yl)-7-chloroquinolin-4-amine] | 32.7 | 23.9 |  |  |  |
| CC(CCCN1CC2(CCOCC2)C1)Nc1ccnc2cc(Cl)ccc12 (centres unmarked) [Example 7, N-(5-(7-Oxa-2-azaspiro[3.5]nonan-2-yl)pentan-2-yl)-7-chloroquinolin-4-amine] | 12.2 | 2.06 | 30.1 |  |  |
| CC(CCCN1CC2CCCC2C1)Nc1ccnc2cc(Cl)ccc12 (centres unmarked) [Example 8, 7-Chloro-N-(5-(hexahydrocyclopenta[c]pyrrol-2 (1H)-yl)pentan-2-yl)quinolin-4-amine] | 18.4 | 3.29 | 34.1 |  |  |
| CCN1CCC2(C1)CN(CCCC(C)Nc1ccnc3cc(Cl)ccc13)C2 (centres unmarked) [Example 9, 7-Chloro-N-(5-(6-ethyl-2,6-diazaspiro[3.4]octan-2-yl)pentan-2-yl)quinolin-4-amine] | 28.3 | 10.5 | 48.3 |  |  |
| CC(CCCN1CC(F)(F)C1)Nc1ccnc2cc(Cl)ccc12 (centres unmarked) [Example 10, 7-Chloro-N-(5-(3,3-difluoroazetidin-1-yl)pentan-2-yl)quinolin-4-amine] | 8.91 | 0.38 | 15 |  |  |
| O=C1CCC(=O)N1CCCCNc1ccnc2cc(Cl)ccc12 [Example 11, 1-(4-((7-Chloroquinolin-4-yl)amino)butyl)pyrrolidine-2,5-dione] | 29.9 | 10.6 | 24.3 |  |  |
| CC(CCCN1C(=O)CNC1=O)Nc1ccnc2cc(F)ccc12 (centres unmarked) [Example 12, 3-(4-((7-Fluoroquinolin-4-yl)amino)pentyl)imidazolidine-2,4-dione] |  | 20.5 |  |  |  |
| CC(CCCN1C(=O)CNC1=O)Nc1ncnc2cc(Cl)ccc12 (centres unmarked) [Example 13, 3-(4-((7-Chloroquinazolin-4-yl)amino)pentyl)imidazolidine-2,4-dione] | 7.83 | 1.8 | 28.6 |  |  |
| CC(CCCN1CC2(CCOCC2)C1)Nc1ncnc2cc(F)ccc12 (centres unmarked) [Example 14, N-(5-(7-Oxa-2-azaspiro[3.5]nonan-2-yl)pentan-2-yl)-7-fluoroquinazolin-4-amine] |  | 2.98 |  |  |  |
| CC(CCCN1C(=O)CCC1=O)Nc1ncnc2cc(Cl)ccc12 (centres unmarked) [Example 15, 1-(4-((7-Chloroquinazolin-4-yl)amino)pentyl)pyrrolidine-2,5-dione] | 17.4 | 1.24 |  |  |  |
| CC(CCCN(CCO)Cc1ncco1)Nc1ncnc2cc(Cl)ccc12 (centres unmarked) [Example 16, 2-((4-((7-Chloroquinazolin-4-yl)amino)pentyl)(oxazol-2-ylmethyl)amino)ethan-1-ol] | 53.2 | 0.59 | 23.4 |  |  |

| Compound | IC50 (TNF-α) [µM] | IC50 (IL-6; THP-1, Table 7, PMA 50 ng/mL) [µM] | IC50 (IL-1β; THP-1, Table 7, PMA 50 ng/mL) [µM] | IC50 (IL-6; THP-1, Table 8, PMA 50 ng/mL) [µM] | IC50 (IL-1β; THP-1, Table 8, PMA 50 ng/mL) [µM] |
| --- | --- | --- | --- | --- | --- |
| CC(CCCN(CCO)Cc1cccc(F)c1)Nc1ccnc2cc(Cl)ccc12 (centres unmarked) [Example 17, 2-((4-((7-Chloroquinolin-4-yl)amino)pentyl)(3-fluorobenzyl)amino)ethan-1-ol] | 4.72 | 0.641 | 23.6 |  |  |
| CC(CCCN(CCO)Cc1ccc(F)cc1F)Nc1ccnc2cc(Cl)ccc12 (centres unmarked) [Example 18, 2-((4-((7-Chloroquinolin-4-yl)amino)pentyl)(2,4-difluorobenzyl)amino)ethan-1-ol] | 3.26 | 0.226 | 2.94 |  |  |
| CC(CCCN(CCO)Cc1cnccn1)Nc1ccnc2cc(Cl)ccc12 (centres unmarked) [Example 32, 2-((4-((7-Chloroquinolin-4-yl)amino)pentyl)(pyrazin-2-ylmethyl)amino)ethan-1-ol] |  | 0.63 |  |  |  |
| CC(CCCN(CCO)Cc1ncn(C)n1)Nc1ccnc2cc(Cl)ccc12 (centres unmarked) [Example 33, 2-((4-((7-Chloroquinolin-4-yl)amino)pentyl)((1-methyl-1H-1,2,4-triazol-3-yl)methyl)amino)ethan-1-ol] |  | 3.85 |  |  |  |
| CC(CCCN(CCO)Cc1c(F)cccc1Cl)Nc1ncnc2cc(Cl)ccc12 (centres unmarked) [Example 38] | 7.28 | 0.12 |  |  |  |
| CC(CCCN(CCO)Cc1ncco1)Nc1ccnc2cc(F)ccc12 (centres unmarked) [Example 41] |  | 30.4 |  |  |  |
| OCCN(CCCCCNc1ncnc2cc(Cl)ccc12)Cc1ncco1 [Example 46, 2-((5-((7-Chloroquinazolin-4-yl)amino)pentyl)(oxazol-2-ylmethyl)amino)ethan-1-ol] | 56.7 | 0.27 |  |  |  |
| O=C1CNC(=O)N1CCCCCNc1ncnc2cc(F)ccc12 [Example 50, 3-(5-((7-Fluoroquinazolin-4-yl)amino)pentyl)imidazolidine-2,4-dione] |  |  |  | 3.99 | 122 |
| CC1(C)NC(=O)N(CCCCCNc2ncnc3cc(F)ccc23)C1=O [Example 53, 3-(5-((7-Fluoroquinazolin-4-yl)amino)pentyl)-5,5-dimethylimidazoline-2,4-dione] |  |  |  | 0.52 | 118 |
| O=C1NC2(CCNCC2)C(=O)N1CCCCNc1ncnc2cc(F)ccc12 [Example 60, 3-(4-((7-Fluoroquinazolin-4-yl)amino)butyl)-1,3,8-triazaspiro[4.5]decane-2,4-dione] |  |  |  | 34 |  |
| O=C1NC2(CC2)C(=O)N1CCCCNc1ncnc2cc(F)ccc12 [Example 61, 6-(4-((7-Fluoroquinazolin-4-yl)amino)butyl)-4,6-diazaspiro[2.4]heptane-5,7-dione] |  |  |  | 5.84 | 134 |
| O=C1NC2(CC2)C(=O)N1CCCCNc1ncnc2cc(Cl)ccc12 [Example 65, 6-(4-((7-Chloroquinazolin-4-yl)amino)butyl)-4,6-diazaspiro[2.4]heptane-5,7-dione] |  |  |  | 2.02 |  |
| O=C1NC2(CC2)C(=O)N1CCCCCNc1ncnc2cc(Cl)ccc12 [Example 68, 6-(5-((7-Chloroquinazolin-4-yl)amino)pentyl)-4,6-diazaspiro[2.4]heptane-5,7-dione] |  |  |  | 0.42 |  |
| O=C1NC2(CCC2)C(=O)N1CCCCCNc1ncnc2cc(Cl)ccc12 [Example 70, 7-(5-((7-Chloroquinazolin-4-yl)amino)pentyl)-5,7-diazaspiro[3.4]octane-6,8-dione] |  |  |  | 0.46 |  |
| C[C@H](CCCN1C(=O)CNC1=O)Nc1ncnc2cc(Cl)ccc12 [Example 74, (R)-3-(4-((7-Chloroquinazolin-4-yl)amino)pentyl)imidazolidine-2,4-dione] |  |  |  | 12.4 |  |
